Assay: recombinant UMI read abundance after kanamycin selection (control-corrected) (log10(CPM+1)); higher = more efficient recombination; extreme values may be limits of the assay; sequences stand for … in AGTGCAGAGAAAATCGGCCAGTTTTCTCTGCCTGCAGTCCGCATGCCGTGGGACCCCTTGGGTTCTAACCTGTTGCCTAGATTTATGCAGCGGACTGCCTTTCTCCCAAAGTGATAAACCGG…AGGTTGGTTTCACT; site = the 11-nt donor
In short: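 Values are reported as log10(CPM+1), obtained by converting sequencing counts to CPM, averaging replicates and scaling by control-derived factors. The counts came from recombinant UMIs amplified by PCR across the donor–target junction. These UMIs came from a pooled Escherichia coli screen of donor and donor-binding-loop pairs for the IS621 bridge recombinase, plated with IPTG (0.07 mM) plus kanamycin or left unselected, in two replicates each.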
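Also: IS621 bridge recombinase in Escherichia coli cells against a fixed T5 target plasmid.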

Sequence	recombinant UMI read abundance (log10)
TGTGCACCATGGACCGGTTTTCCCGGTAATCCGTATTTGAC (site TGTACACCTGT)	0
TGTGCACCATGGACCGGTTTTCCCGGTAATCCGTATTTGAC (site TGTCCACCTGT)	0.0317
TGTGCACCATGGACCGGTTTTCCCGGTAATCCGTATTTGAC (site TGTGCACCTGT)	0
TGTGCACCATGGACCGGTTTTCCCGGTAATCCGTATTTGAC (site TGTTCACCTGT)	0
TGTGCCCCATGGACCGGTTTTCCCGGTAATCCGTATTTGTA (site TGTACCCCTTA)	0.126
TGTGCCCCATGGACCGGTTTTCCCGGTAATCCGTATTTGTA (site TGTCCCCCTTA)	0.0113
TGTGCCCCATGGACCGGTTTTCCCGGTAATCCGTATTTGTA (site TGTGCCCCTTA)	0.0922
TGTGCCCCATGGACCGGTTTTCCCGGTAATCCGTATTTGTA (site TGTTCCCCTTA)	0.0156
TGTGCTGCATGGACCGGTTTTCCCGGTAATCCGTATTTGAA (site TGTGCTGCTTT)	0.011
TGTGGAACATGGACCGGTTTTCCCGGTAATCCGTATTTGTT (site AGTGGAACTAA)	0.0127
TGTGGAACATGGACCGGTTTTCCCGGTAATCCGTATTTGTT (site CGTGGAACTAA)	0.0659
TGTGGAACATGGACCGGTTTTCCCGGTAATCCGTATTTGTT (site GGTGGAACTAA)	0
TGTGGAACATGGACCGGTTTTCCCGGTAATCCGTATTTGTT (site TGTGGAACTAA)	0.511
TGTGTAACATGGACCGGTTTTCCCGGTAATCCGTATTTGAC (site TGTGTAACTGT)	0
TGTTAGGCATGGACCGGTTTTCCCGGTAATCCGTATTTGGT (site TGATAGGCTAC)	0.0087
TGTTAGGCATGGACCGGTTTTCCCGGTAATCCGTATTTGGT (site TGCTAGGCTAC)	0.304
TGTTAGGCATGGACCGGTTTTCCCGGTAATCCGTATTTGGT (site TGGTAGGCTAC)	0.017
TGTTAGGCATGGACCGGTTTTCCCGGTAATCCGTATTTGGT (site TGTTAGGCTAC)	0.273
TGTTCACCATGGACCGGTTTTCCCGGTAATCCGTATTTGAC (site TGTACACCTGT)	0
TGTTCACCATGGACCGGTTTTCCCGGTAATCCGTATTTGAC (site TGTCCACCTGT)	0
TGTTCACCATGGACCGGTTTTCCCGGTAATCCGTATTTGAC (site TGTGCACCTGT)	0
TGTTCACCATGGACCGGTTTTCCCGGTAATCCGTATTTGAC (site TGTTCACCTGT)	0
TGTTCCCCATGGACCGGTTTTCCCGGTAATCCGTATTTGTG (site TGTTCCCCTAA)	0.00613
TGTTCCCCATGGACCGGTTTTCCCGGTAATCCGTATTTGTG (site TGTTCCCCTCA)	0.0316
TGTTCCCCATGGACCGGTTTTCCCGGTAATCCGTATTTGTG (site TGTTCCCCTGA)	0

Sequence	recombinant UMI read abundance (log10)
TGTTCCCCATGGACCGGTTTTCCCGGTAATCCGTATTTGTG (site TGTTCCCCTTA)	0
TGTTCCCCATGGACCGGTTTTCCCGGTAATCCGTATTTGTT (site TGTTCCCCTAA)	0.014
TGTTCCCCATGGACCGGTTTTCCCGGTAATCCGTATTTGTT (site TGTTCCCCTCA)	0.0148
TGTTCCCCATGGACCGGTTTTCCCGGTAATCCGTATTTGTT (site TGTTCCCCTGA)	0
TGTTCCCCATGGACCGGTTTTCCCGGTAATCCGTATTTGTT (site TGTTCCCCTTA)	0.0133
TGTTCCGCATGGACCGGTTTTCCCGGTAATCCGTATTTGTA (site TGTTCCACTTA)	0.00713
TGTTCCGCATGGACCGGTTTTCCCGGTAATCCGTATTTGTA (site TGTTCCCCTTA)	0.0203
TGTTCCGCATGGACCGGTTTTCCCGGTAATCCGTATTTGTA (site TGTTCCGCTTA)	0.0982
TGTTCCGCATGGACCGGTTTTCCCGGTAATCCGTATTTGTA (site TGTTCCTCTTA)	0
TGTTCTCCATGGACCGGTTTTCCCGGTAATCCGTATTTGTA (site TGTTCACCTTA)	0.0104
TGTTCTCCATGGACCGGTTTTCCCGGTAATCCGTATTTGTA (site TGTTCCCCTTA)	0.00777
TGTTCTCCATGGACCGGTTTTCCCGGTAATCCGTATTTGTA (site TGTTCGCCTTA)	0.0191
TGTTCTCCATGGACCGGTTTTCCCGGTAATCCGTATTTGTA (site TGTTCTCCTTA)	0.679
TGTTGGACATGGACCGGTTTTCCCGGTAATCCGTATTTGTG (site TGTTGGACTCA)	0.117
TGTTGTGCATGGACCGGTTTTCCCGGTAATCCGTATTTGCG (site TGTTGTGCTCG)	0.684
TTAAGAGCATGGACCGGTTTTCCCGGTAATCCGTATTTGCA (site TTAAGAGCTTG)	2.63
TTAAGGCCATGGACCGGTTTTCCCGGTAATCCGTATTTGAC (site ATAAGGCCTGT)	0
TTAAGGCCATGGACCGGTTTTCCCGGTAATCCGTATTTGAC (site CTAAGGCCTGT)	0
TTAAGGCCATGGACCGGTTTTCCCGGTAATCCGTATTTGAC (site GTAAGGCCTGT)	0
TTAAGGCCATGGACCGGTTTTCCCGGTAATCCGTATTTGAC (site TTAAGGCCTGT)	0
TTAAGTCCATGGACCGGTTTTCCCGGTAATCCGTATTTGTA (site TAAAGTCCTTA)	0.00903
TTAAGTCCATGGACCGGTTTTCCCGGTAATCCGTATTTGTA (site TCAAGTCCTTA)	0.361
TTAAGTCCATGGACCGGTTTTCCCGGTAATCCGTATTTGTA (site TGAAGTCCTTA)	0.0153
TTAAGTCCATGGACCGGTTTTCCCGGTAATCCGTATTTGTA (site TTAAGTCCTTA)	1.44
TTAATAGCATGGACCGGTTTTCCCGGTAATCCGTATTTGAT (site TTAATAGCTAT)	1.76

Sequence	recombinant UMI read abundance (log10)
TTAATTCCATGGACCGGTTTTCCCGGTAATCCGTATTTGTG (site TTAATTCCTCA)	0.4
TTACAACCATGGACCGGTTTTCCCGGTAATCCGTATTTGCA (site TTACAACCTTG)	0
TTACACTCATGGACCGGTTTTCCCGGTAATCCGTATTTGAT (site TTACACTCTAT)	2.95
TTACAGACATGGACCGGTTTTCCCGGTAATCCGTATTTGAG (site TTACAGACTCT)	1.21
TTACGAACATGGACCGGTTTTCCCGGTAATCCGTATTTGAC (site TTACGAACTGT)	2.28
TTACTAACATGGACCGGTTTTCCCGGTAATCCGTATTTGGA (site ATACTAACTTC)	0.0425
TTACTAACATGGACCGGTTTTCCCGGTAATCCGTATTTGGA (site CTACTAACTTC)	0.457
TTACTAACATGGACCGGTTTTCCCGGTAATCCGTATTTGGA (site GTACTAACTTC)	0.288
TTACTAACATGGACCGGTTTTCCCGGTAATCCGTATTTGGA (site TTACTAACTTC)	0.363
TTAGAATCATGGACCGGTTTTCCCGGTAATCCGTATTTGAC (site CTAGTATCTGT)	0
TTAGAATCATGGACCGGTTTTCCCGGTAATCCGTATTTGAC (site TTAGAATCTGT)	1.48
TTAGCTACATGGACCGGTTTTCCCGGTAATCCGTATTTGTG (site TTAGCTACTCA)	0.319
TTAGCTACATGGACCGGTTTTCCCGGTAATCCGTATTTGTG (site TTAGCTCCTCA)	0.00713
TTAGCTACATGGACCGGTTTTCCCGGTAATCCGTATTTGTG (site TTAGCTGCTCA)	0.0109
TTAGCTACATGGACCGGTTTTCCCGGTAATCCGTATTTGTG (site TTAGCTTCTCA)	0.0149
TTAGCTGCATGGACCGGTTTTCCCGGTAATCCGTATTTGTC (site TTAGCTGCTAA)	0.00712
TTAGCTGCATGGACCGGTTTTCCCGGTAATCCGTATTTGTC (site TTAGCTGCTCA)	0.00796
TTAGCTGCATGGACCGGTTTTCCCGGTAATCCGTATTTGTC (site TTAGCTGCTGA)	2.26
TTAGCTGCATGGACCGGTTTTCCCGGTAATCCGTATTTGTC (site TTAGCTGCTTA)	0.15
TTAGTATCATGGACCGGTTTTCCCGGTAATCCGTATTTGAC (site ATAGTATCTGT)	2.12
TTAGTATCATGGACCGGTTTTCCCGGTAATCCGTATTTGAC (site CTAGTATCTGT)	2.18
TTAGTATCATGGACCGGTTTTCCCGGTAATCCGTATTTGAC (site GTAGTATCTGT)	0.348
TTAGTATCATGGACCGGTTTTCCCGGTAATCCGTATTTGAC (site TTAGTATCTGT)	2.84
TTAGTCACATGGACCGGTTTTCCCGGTAATCCGTATTTGGG (site TTAGTCACTCC)	0.0104
TTAGTCGCATGGACCGGTTTTCCCGGTAATCCGTATTTGCG (site ATAGTCGCTCG)	0.0346
